Experimental data taken from publication PMC11027885, “Utilizing surface plasmon resonance as a novel method for monitoring in-vitro P-glycoprotein efflux” (Frontiers in biophysics, 2024).
Where a name gives a salt, the structure may show the parent alone. Read-outs that look alike come from different tables or passages of the source.

Legend:
Pgp (Abcb1a, MDR3) = Pgp (Abcb1a, MDR3) (Mus musculus, UniProt P21447); experiment: in vitro; details: pH 7.4
Pgp = tested on: Pgp; set-up: method as in Doan et al. (2002); details: drug accumulation assay, MDR1-MDCKII cells; ref Doan et al. (2002); cited from earlier work
mouse Pgp (Abcb1a, MDR3) = mouse Pgp (Abcb1a, MDR3) (Mus musculus, UniProt P21447); experiment: ATPase assay (Chifflet method), Pgp reconstituted in liposomes
mouse Pgp (Abcb1a, MDR3), sequence (P21447 whole entry): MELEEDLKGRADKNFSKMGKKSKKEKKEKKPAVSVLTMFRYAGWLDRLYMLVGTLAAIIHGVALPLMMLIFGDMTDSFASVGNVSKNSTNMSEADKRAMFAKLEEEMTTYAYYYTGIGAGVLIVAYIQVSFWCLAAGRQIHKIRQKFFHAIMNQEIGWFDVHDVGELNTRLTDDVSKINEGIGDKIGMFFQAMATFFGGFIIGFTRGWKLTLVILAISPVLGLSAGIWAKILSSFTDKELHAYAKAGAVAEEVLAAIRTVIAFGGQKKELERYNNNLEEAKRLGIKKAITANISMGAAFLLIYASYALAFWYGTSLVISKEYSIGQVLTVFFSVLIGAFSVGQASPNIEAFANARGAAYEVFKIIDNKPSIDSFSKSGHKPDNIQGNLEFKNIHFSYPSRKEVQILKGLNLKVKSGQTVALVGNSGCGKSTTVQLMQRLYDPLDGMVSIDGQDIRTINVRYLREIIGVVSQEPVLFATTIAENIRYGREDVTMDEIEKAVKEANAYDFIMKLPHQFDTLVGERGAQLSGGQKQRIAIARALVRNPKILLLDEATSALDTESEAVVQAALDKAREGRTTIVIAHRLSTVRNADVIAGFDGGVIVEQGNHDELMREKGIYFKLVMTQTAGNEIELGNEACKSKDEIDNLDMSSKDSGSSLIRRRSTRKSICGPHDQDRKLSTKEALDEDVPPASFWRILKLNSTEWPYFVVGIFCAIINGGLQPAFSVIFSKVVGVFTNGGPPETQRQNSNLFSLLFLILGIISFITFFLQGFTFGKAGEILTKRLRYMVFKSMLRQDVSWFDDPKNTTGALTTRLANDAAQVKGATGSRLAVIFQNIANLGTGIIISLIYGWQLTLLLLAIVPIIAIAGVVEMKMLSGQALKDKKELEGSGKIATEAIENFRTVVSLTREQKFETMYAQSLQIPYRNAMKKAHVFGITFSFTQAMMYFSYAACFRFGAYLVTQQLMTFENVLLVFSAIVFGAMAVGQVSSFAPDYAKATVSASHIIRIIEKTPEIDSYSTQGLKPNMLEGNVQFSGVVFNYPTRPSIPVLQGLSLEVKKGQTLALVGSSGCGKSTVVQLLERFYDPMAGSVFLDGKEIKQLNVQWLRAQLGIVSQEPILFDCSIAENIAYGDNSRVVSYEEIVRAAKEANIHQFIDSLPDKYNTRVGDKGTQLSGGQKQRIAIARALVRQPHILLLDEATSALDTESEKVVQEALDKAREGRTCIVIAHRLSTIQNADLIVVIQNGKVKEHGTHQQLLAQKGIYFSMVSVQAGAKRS

Pgp (Abcb1a, MDR3), sequence (P21447 whole entry): as above

CNCCCN1c2ccccc2CCc2ccccc21 [Desipramine, desipramine hydrochloride]
koff (Pgp (Abcb1a, MDR3)): 129 s⁻¹
Pgp efflux ratio (literature) (Pgp): 2
vmax of Pgp ATP hydrolysis (mouse Pgp (Abcb1a, MDR3); 50 nM Pgp in liposomes, curve fit (Eq. 2 monophasic, Eq. 3 biphasic)): 904 ± 65 nmolmin^−1mg^−1
ATP hydrolysis activation profile (mouse Pgp (Abcb1a, MDR3); shape of ATPase kinetics curve): monophasic

CCC(=O)C(CC(C)N(C)C)(c1ccccc1)c1ccccc1 (stereo not drawn) [Methadone, methadone hydrochloride]
peak ATP hydrolysis rate (mouse Pgp (Abcb1a, MDR3)): approximately 800 nmolmin^−1mg^−1
vmax of Pgp ATP hydrolysis (mouse Pgp (Abcb1a, MDR3)): 849 ± 45 nmolmin^−1mg^−1

C=C[C@H]1C[N@@]2CC[C@H]1C[C@@H]2[C@@H](O)c1ccnc2ccc(OC)cc12 [Quinidine]
Ki (mouse Pgp (Abcb1a, MDR3)): 131 ± 34 µM
peak ATP hydrolysis rate (mouse Pgp (Abcb1a, MDR3)): approximately 900 nmolmin^−1mg^−1

[Na+].[Na+].[Na+].[O]=[V]([O-])([O-])[O-] [sodium orthovanadate, Sodium orthovanadate]
Pgp ATPase activity in presence of inhibitor (mouse Pgp (Abcb1a, MDR3); decline from basal 482 ± 50): approximately 100 nmolmin^−1mg^−1
